# Results taken from US20220055989A1, “CONDENSED PYRROLES AS NOVEL BROMODOMAIN INHIBITORS” (ALBERT LUDWING UNIVERSITÄT FREIBURG, priority 2018, published 2022).
# Like-named read-outs stand apart in the source and are kept apart here.
# Tests used:
# Type in all cases: binding
# BRD9 = molecular target: T1, BRD9 (Homo sapiens, UniProt Q9H8M2); experiment: BROMOscan Kd determination BRD9
# T1 construct: T7 phage strains displaying bromodomains were grown; host or cells: T7 phage in E. coli derived from BL21
# T1 sequence (Q9H8M2 136-240 limits assumed): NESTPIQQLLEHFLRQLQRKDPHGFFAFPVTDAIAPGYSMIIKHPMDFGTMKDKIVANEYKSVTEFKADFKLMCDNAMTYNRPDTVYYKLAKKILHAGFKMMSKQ
# Procedure: (§1) Bromodomain profiling was carried out on the basis of BROMOscan™. This platform accounted for the indirect determination of the dissociation constants between 19 bromodomains and the compound of formula (13), by binding competition against a reference immobilized ligand. Compounds that bind the bromodomain prevent its binding to the immobilized ligand thus reducing the amount of protein captured. […] Hits are identified by measuring the amount of bromodomain captured in test versus control samples. Bromodomain assays for Kd determination: T7 phage strains displaying bromodomains were grown in parallel in 24-well blocks in an E. coli host derived from the BL21 strain. E. coli were grown to log-phase and infected with T7 phage from a frozen stock (multiplicity of infection=0.4) and incubated with shaking at 32° C. until lysis (90-150 minutes). The lysates were centrifuged (5,000×g) and filtered (0.2 μm) to remove cell debris. […] The liganded beads were blocked with excess biotin and washed with blocking buffer (SeaBlock (Pierce), 1% BSA, 0.05% Tween 20, 1 mM DTT) to remove unbound ligand and to reduce non-specific phage binding. […] Test compounds were prepared as 1000× stocks in 100% DMSO. Kds were determined using an 11-point 3-fold compound dilution series with one DMSO control point. All compounds for Kd measurements are distributed by acoustic transfer (non-contact dispensing) in 100% DMSO. The compounds were then diluted directly into the assays such that the final concentration of DMSO was 0.09%. All reactions performed in polypropylene 384-well plates. Each was a final volume of 0.02 ml. […] The bromodomain concentration in the eluates was measured by qPCR. […] All compounds for Kd measurements are distributed by acoustic transfer (non-contact dispensing) in 100% DMSO. The compounds were then diluted directly into the assays such that the final concentration of DMSO was 0.09%. Most Kds were determined using a compound top concentration=10,000 nM. If the initial Kd determined was <0.169 nM (the lowest concentration tested), the measurement was repeated with a serial dilution starting at a lower top concentration. Binding Constants (Kds): Binding constants (Kds) were calculated with a standard dose-response curve using the Hill equation: The Hill Slope was set to −1. Curves were fitted using a non-linear least square fit with the Levenberg-Marquardt algorithm.
# BRD4(2) = molecular target: T2, BRD4(2) (Homo sapiens, UniProt O60885); experiment: BROMOscan Kd determination BRD4(2)
# T2 construct: T7 phage strains displaying bromodomains were grown; host or cells: T7 phage in E. coli derived from BL21
# Procedure: (§2) Bromodomain profiling was carried out on the basis of BROMOscan™. This platform accounted for the indirect determination of the dissociation constants between 19 bromodomains and the compound of formula (13), by binding competition against a reference immobilized ligand. Compounds that bind the bromodomain prevent its binding to the immobilized ligand thus reducing the amount of protein captured. […] Hits are identified by measuring the amount of bromodomain captured in test versus control samples. Bromodomain assays for Kd determination: T7 phage strains displaying bromodomains were grown in parallel in 24-well blocks in an E. coli host derived from the BL21 strain. E. coli were grown to log-phase and infected with T7 phage from a frozen stock (multiplicity of infection=0.4) and incubated with shaking at 32° C. until lysis (90-150 minutes). The lysates were centrifuged (5,000×g) and filtered (0.2 μm) to remove cell debris. […] Kds were determined using an 11-point 3-fold compound dilution series with one DMSO control point. […] The bromodomain concentration in the eluates was measured by qPCR. […] Most Kds were determined using a compound top concentration=10,000 nM. […] Binding Constants (Kds): Binding constants (Kds) were calculated with a standard dose-response curve using the Hill equation: The Hill Slope was set to −1. […]
# BRD7 = molecular target: T3, BRD7 (Homo sapiens, UniProt Q9NPI1); experiment: BROMOscan Kd determination BRD7
# T3 construct: T7 phage strains displaying bromodomains were grown; host or cells: T7 phage in E. coli derived from BL21
# T3 sequence (Q9NPI1 131-235 limits assumed): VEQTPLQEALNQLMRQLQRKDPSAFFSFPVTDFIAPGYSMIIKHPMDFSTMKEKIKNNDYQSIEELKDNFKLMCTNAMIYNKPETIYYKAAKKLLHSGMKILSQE
# Procedure: as §1
# BRDT(1) = molecular target: T4, BRDT(1) (Homo sapiens, UniProt Q58F21); experiment: BROMOscan Kd determination BRDT(1)
# T4 construct: T7 phage strains displaying bromodomains were grown; host or cells: T7 phage in E. coli derived from BL21
# Procedure: as §1
# BRPF1 = molecular target: T5, BRPF1 (Homo sapiens, UniProt P55201); experiment: BROMOscan Kd determination BRPF1
# T5 construct: T7 phage strains displaying bromodomains were grown; host or cells: T7 phage in E. coli derived from BL21
# T5 sequence (P55201 628-732 limits assumed): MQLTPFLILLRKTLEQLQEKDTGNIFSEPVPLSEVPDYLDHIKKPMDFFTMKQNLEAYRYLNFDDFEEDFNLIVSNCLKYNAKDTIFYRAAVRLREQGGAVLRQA
# Procedure: as §1
# BRDT(2) = molecular target: T6, BRDT(2) (Homo sapiens, UniProt Q58F21); experiment: BROMOscan Kd determination BRDT(2)
# T6 construct: T7 phage strains displaying bromodomains were grown; host or cells: T7 phage in E. coli derived from BL21
# Procedure: as §2
# BRD4(1) [1] = molecular target: T7, BRD4(1) (Homo sapiens, UniProt O60885); experiment: Isothermal titration calorimetry, dissociation constant KD BRD4(1)
# T7 construct: BRD4-BD1 was expressed and purified as described previously; made in house
# Procedure: BRD4-BD1 was expressed and purified as described previously (Filippakopoulos et al, (2012), Cell 149(1): […]) with the exception of the final buffer for crystallization and ITC analysis (20 mM Hepes/NaOH pH 7.5, 150 mM NaCl). Crystals were grown in the presence of 3.5 M Na-Formate (pH 7.5) at a protein concentration of 10 mg/ml and a ligand concentration of 2 mM added directly to the protein prior to crystallization from a 100 mM stock solution in DMSO. Data were collected at 100K using either a Rigaku HF-007 rotating anode X-ray generator equipped with VariMaxHF optics and a Saturn944 CCD detector or a mar345 image plate respectively at λ=1.54179 Å or at the PXI beamline at the Swiss Light Source at λ=1.000 Å with a Pilatus detector. Data processing and reduction was done with iMOSFLM (Leslie AGW PH (2007), Evolving Methods for Macromolecular Crystallography 245, 41.51), POINTLESS, and SCALA (Kabsch W (2010) Xds. Acta crystallographica. Section D, Biological crystallography 66(Pt 2):125-132; Bruker (2008) SADABS, SAINT and XPREP (Bruker AXS Inc., Madison, Wis., USA); Collaborative Computational Project N (1994) The CCP4 suite: programs for protein crystallography, Acta crystallographica, Section D, Biological crystallography 50(Pt 5):760-763), or with XDS, XSCALE, XDSCONV (Evans P (2006), Scaling and assessment of data quality, Acta crystallographica, Section D, Biological crystallography 62(Pt 1):72-82), and XPREP (Evans P R (2011), An introduction to data reduction: space-group determination, scaling and intensity statistics, Acta crystallographica, Section D, Biological crystallography 67(Pt 4):282-292).
# Data were obtained in discrete titration experiments with an injection volume of 12 μl per injection. Subsequently, the heats per injection were calculated as integrals and after normalization against the molar concentrations plotted against the molar ratio as implemented in Microcal Origin. Finally, data were fitted according to a single set of sites binding model with
# The dissociation constant Kd, is commonly used to describe the affinity between a ligand L and a protein, i.e. how tightly a ligand binds to a particular protein. The dissociation constant has molar units which correspond to the concentration of ligand at which the binding site on a particular protein is half occupied, i.e. the concentration of the ligand at which the concentration of protein with ligand bound equals the concentration of protein with no ligand bound. The smaller the dissociation constant, the higher the affinity between ligand and protein.
# BRD4(1) [2] = molecular target: T7, BRD4(1); experiment: BROMOscan Kd determination BRD4(1)
# Procedure: as §1
# CECR2 = molecular target: T8, CECR2 (Homo sapiens, UniProt Q9BXF3); experiment: BROMOscan Kd determination CECR2
# T8 construct: T7 phage strains displaying bromodomains were grown; host or cells: T7 phage in E. coli derived from BL21
# T8 sequence (Q9BXF3 434-538 limits assumed): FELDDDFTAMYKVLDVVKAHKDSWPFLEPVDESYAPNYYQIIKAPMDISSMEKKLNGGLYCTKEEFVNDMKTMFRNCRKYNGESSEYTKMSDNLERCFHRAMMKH
# Procedure: as §1
# BRPF1B = molecular target: T9, BRPF1B (Homo sapiens, UniProt P55201); experiment: Dissociation constant KD BRPF1B
# T9 construct: dissociation constants KD for two bromodomains (BRD4(1) and BRPF1B)
# T9 sequence (P55201 628-732 limits assumed): T5 sequence (P55201 628-732 limits assumed)
Structure (SMILES),Kd (BRD9) [µM],Kd (BRD4(2)) [µM],Kd (BRD7) [µM],Kd (BRDT(1)) [µM],Kd (BRPF1) [µM],Kd (BRDT(2)) [µM],Kd (BRD4(1) [1]) [µM],Kd (BRD4(1) [2]) [µM],Kd (CECR2) [µM],Kd (BRPF1B) [µM],Kd (BRD9; Table 3 compound 27) [µM],Kd (BRD7; Table 3 compound 27) [µM],Kd (CECR2; Table 3 compound 27) [µM],Kd (BRDT(1); Table 3 compound 27) [µM],Kd (BRPF1; Table 3 compound 27) [µM],Kd (BRD4(1) [2]; Table 3 compound 27) [µM]
"COc1ccc(S(=O)(=O)N2CCOCC2)cc1NC(=O)c1[nH]c(C)c2c1CCCCC2=O [Compound 13, N-(2-methoxy-5-(morpholinosulfonyl)phenyl)-3-methyl-4-oxo-2,4,5,6,7,8-hexahydrocyclohepta[c]pyrrole-1-carboxamide]",0.067,0.22,0.085,0.67,0.52,1,0.0778,0.06,–,–,–,–,–,–,–,–
Cc1[nH]c(-c2cc(N)ccc2Cl)c2c1C(=O)CCCC2 [Compound 23],0.067,0.27,0.43,0.24,0.13,0.62,–,0.25,0.97,0.166,–,–,–,–,–,–
"CCCc1[nH]c(-c2cc(N)ccc2Cl)c2c1C(=O)CCCC2 [Compound 26, 1-(5-Amino-2-chlorophenyl)-3-propyl-5,6,7,8-tetrahydrocyclohepta[c]pyrrol-4(2H)-one]",0.15,–,1.1,6.1,7,–,6.9,6.9,> 10,7,–,–,–,–,–,–
"CCCCc1[nH]c(-c2cc(N)ccc2Cl)c2c1C(=O)CCCC2 [Compound 27, 1-(5-Amino-2-chlorophenyl)-3-butyl-5,6,7,8-tetrahydrocyclohepta[c]pyrrol-4(2H)-one]",–,–,–,–,–,–,> 10,–,–,> 10,0.8,> 10,> 10,> 10,> 10,> 10
